The EC50 is the concentration needed to bring the measured effect to its halfway point. As usually defined, the IC50 is the point on the concentration scale where inhibition reaches its midpoint. A lower IC50 goes with higher potency.

The record followed here is publication PMC6977461 (Chemical Science, 2019).

A short description of series [1]: mouse plasma degradation assay (Methods MP1-MP3). The format is in vitro ADME. The note with it: mouse plasma diluted 1/1 with PBS; mouse plasma/PBS pH 7.4 (1/1), 5 µM, 37 °C, acetonitrile quench, LC-MS extracted ion chromatogram; MP1 for 2-8, MP2 for 9-11, MP3 for 12-14; mean, n = 3; read-out: Mouse plasma t1/2 (converted). The protocol:
The oligomer was then diluted 1/50 with a solution of plasma/PBS pH 7.4 (1/1) to afford a final concentration of 5μM and incubated at 37°C. […] (t = 0 min was determined using the reaction without plasma). The samples were frozen at -80°C before analysis. […] The supernatant was analyzed by LC-MS. The time course of oligomer degradation was determined by integrating the area of the peak in the extracted ion chromatogram. […] The oligomer was then diluted 1/50 with a solution of plasma/PBS pH 7.4 (1/1) to afford a final concentration of 5μM and incubated at 37°C. […] The oligomer was then diluted 1/50 with a solution of plasma/PBS pH 7.4 (1/1) to afford a final concentration of 5μM and incubated at 37°C. […] Animals. […] A standard chow diet (RM1 (E) 801492, SDS) and tap water were provided ad libitum. All animal protocols done by Physiogenex S.A.S were reviewed and approved by the local (Comité […] national ([…]

In series [2] the target is T1, mouse GLP-1 receptor (Mus musculus, UniProt O35659).
T1 construct: βTC6 cells which express GLP-1R endogenously; host or cells: βTC6 cells
T1 sequence (O35659 22-463): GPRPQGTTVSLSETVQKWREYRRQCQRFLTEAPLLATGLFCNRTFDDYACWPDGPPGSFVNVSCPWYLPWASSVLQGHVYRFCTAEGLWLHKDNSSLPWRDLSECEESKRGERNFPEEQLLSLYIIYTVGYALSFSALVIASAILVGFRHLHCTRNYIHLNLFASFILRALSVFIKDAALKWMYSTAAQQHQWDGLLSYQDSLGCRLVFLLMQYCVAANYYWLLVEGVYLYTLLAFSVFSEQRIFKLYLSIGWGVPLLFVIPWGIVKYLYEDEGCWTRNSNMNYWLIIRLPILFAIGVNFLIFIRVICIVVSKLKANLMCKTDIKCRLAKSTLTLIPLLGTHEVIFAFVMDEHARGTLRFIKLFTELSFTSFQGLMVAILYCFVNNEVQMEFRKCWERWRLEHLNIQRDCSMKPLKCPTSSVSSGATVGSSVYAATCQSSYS
Nature of the series: cAMP production in βTC6 cells expressing GLP-1R endogenously (Method C2). The following applies: for loss in potency relative to 3 (fold): figures for 6-8 match the βTC6 EC50 values of Table S1; for Potency (%), Table S1: from EC50 in βTC6 cAMP assay, footnote: compare to GLP-1-NH2 (2); for EC50: read-out: EC50 (GLP-1R potency), Table S1. The series is classed as cell-based. On the technique in general: Changes in cAMP serve as a functional read-out for many G protein-coupled receptors.
Description:  HEK-293T cells (Multispan inc., lot#.DC1267-062017) were suspended in cell culture media
(DMEM 1X + GlutaMAX (Gibco 31966-021)) complemented with FBS 10% (Sigma Aldrich
 βTC6 cells were suspended in HBSS buffer (Invitrogen) complemented with 20 mM HEPES (pH
In vitro pharmacology on HEK-293T cells (EC50: Method C1)
cells (Multispan inc., lot#.DC1267-062017) was determined by measuring their effects on cAMP
production using the HTRF detection method (performed by UREkA SARL). The cells were distributed
in 384-well microplates at a density of 1.0x10^4 cells/well. Stock solutions of the test compounds or the
reference agonist were prepared at a concentration of 1 mM in DMSO. Then, compounds to be tested
were diluted in cell culture media and transferred to the plate containing the cells to reach final assay

In another series the target is GLP-1R (Homo sapiens, UniProt P43220). Nature of the series: cAMP production functional assay in HEK293 cells transfected with GLP-1R (Method C1). The format is cell-based. The arrangement: host or cells: HEK-293T. The note with it: for EC50: HEK-293T cells exogenously expressing human GLP-1R, cAMP by HTRF, 10 min at 37 °C, Method C1, mean, n = 3 (2: n = 6), read-out: EC50 (GLP-1R potency); for Potency (%), percentage of potency compared to GLP-1-NH2: from EC50 in HEK293 GLP-1R cAMP assay.

Series [3] concerns the target T1, mouse GLP-1 receptor. The series can be described thus: radioligand binding assay, [125I]GLP-1(7-36), βTC6 cell membrane homogenates.
Description: In vitro pharmacology: Affinity (IC50)
and 1% BSA. […] Following
incubation, the samples are filtered rapidly under vacuum through glass fiber filters (GF/B, Packard)
presoaked with 0.3% PEI and rinsed several times with an ice-cold buffer containing 50 mM Tris-HCl
and 500 mM NaCl using a 96-sample cell harvester (Unifilter, Packard). The filters are dried then
counted for radioactivity in a scintillation counter (Topcount, Packard) using a scintillation cocktail
(Microscint 0, Packard). The results are expressed as a percent inhibition of the control radioligand
at several concentrations to obtain a competition curve from which its IC50 is calculated using

Sequence of GLP-1R (P43220 24-463): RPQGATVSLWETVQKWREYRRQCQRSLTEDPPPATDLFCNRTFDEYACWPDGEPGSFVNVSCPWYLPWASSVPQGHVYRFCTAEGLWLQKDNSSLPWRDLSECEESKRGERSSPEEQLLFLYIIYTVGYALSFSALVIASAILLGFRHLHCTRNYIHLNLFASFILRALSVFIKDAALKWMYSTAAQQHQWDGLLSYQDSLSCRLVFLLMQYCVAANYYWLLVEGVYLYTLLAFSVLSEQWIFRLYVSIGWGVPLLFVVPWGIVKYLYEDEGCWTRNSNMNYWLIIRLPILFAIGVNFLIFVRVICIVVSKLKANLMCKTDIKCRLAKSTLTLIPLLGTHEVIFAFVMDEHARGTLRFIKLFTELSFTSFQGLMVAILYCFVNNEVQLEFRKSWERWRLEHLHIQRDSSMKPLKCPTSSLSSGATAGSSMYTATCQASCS

Regarding `CC[C@H](C)[C@H](NC(=O)[C@H](Cc1ccccc1)NC(=O)[C@H](CCC(=O)O)NC(=O)[C@H](CCCCN)NC(=O)[C@H](C)NC(=O)[C@H](C)NC(=O)[C@H](CCC(N)=O)NC(=O)CNC(=O)[C@H](CCC(=O)O)NC(=O)[C@H](CC(C)C)NC(=O)[C@H](Cc1ccc(O)cc1)NC(=O)[C@H](CO)NC(=O)[C@H](CO)NC(=O)[C@@H](NC(=O)[C@H](CC(=O)O)NC(=O)[C@H](CO)NC(=O)[C@@H](NC(=O)[C@H](Cc1ccccc1)NC(=O)[C@@H](NC(=O)CNC(=O)[C@H](CCC(=O)O)NC(=O)NC(C)CNC(=O)[C@@H](N)Cc1c[nH]cn1)[C@@H](C)O)[C@@H](C)O)C(C)C)C(=O)N[C@@H](C)C(=O)N[C@@H](Cc1c[nH]c2ccccc12)C(=O)N[C@@H](CC(C)C)C(=O)N[C@H](C(=O)N[C@@H](CCCCN)C(=O)NCC(=O)N[C@@H](CCCNC(=N)N)C(=O)NCC(N)=O)C(C)C` (stereo partly drawn) [compound 6], the half-life at 5 µM in series [1] was 22.2 min. For the same molecule, at mouse GLP-1 receptor [2], the “loss in potency relative to 3 (fold)” value was 24 fold; the “Potency (%), Table S1” value was 3%; the EC50 stood at 3.4 nM. In addition, on GLP-1R, the EC50 is 0.012 nM and the “Potency (%), percentage of potency compared to GLP-1-NH2” value (“Potency (%), percentage of potency” below) is 25%.

`CC[C@H](C)[C@H](NC(=O)[C@H](Cc1ccccc1)NC(=O)[C@H](CCC(=O)O)NC(=O)[C@H](CCCCN)NC(=O)[C@H](C)NC(=O)[C@H](C)NC(=O)[C@H](CCC(N)=O)NC(=O)CNC(=O)[C@H](CCC(=O)O)NC(=O)[C@H](CC(C)C)NC(=O)[C@H](Cc1ccc(O)cc1)NC(=O)[C@H](CO)NC(=O)[C@H](CO)NC(=O)[C@@H](NC(=O)[C@H](CC(=O)O)NC(=O)[C@H](CO)NC(=O)[C@@H](NC(=O)[C@H](Cc1ccccc1)NC(=O)[C@@H](NC(=O)CNC(=O)[C@H](CCC(=O)O)NC(=O)NC[C@H](C)NC(=O)[C@@H](N)Cc1c[nH]cn1)[C@@H](C)O)[C@@H](C)O)C(C)C)C(=O)N[C@@H](C)C(=O)N[C@@H](Cc1c[nH]c2ccccc12)C(=O)N[C@@H](CC(C)C)C(=O)N[C@H](C(=O)N[C@@H](CCCCN)C(=O)NCC(=O)N[C@@H](CCCNC(=N)N)C(=O)NCC(N)=O)C(C)C` [compound 3]: the half-life at 5 µM in series [1] is 14.4 min. In addition, at mouse GLP-1 receptor [2], the “Potency (%), Table S1” value is 70% and the EC50 was 0.14 nM. At GLP-1R, the 50% effective concentration (EC50) stood at 0.0027 nM and the “Potency (%), percentage of potency” value came out at 117%. At mouse GLP-1 receptor [3], the IC50 is 32 nM.

`CC[C@H](C)[C@H](NC(=O)[C@H](Cc1ccccc1)NC(=O)[C@H](CCC(=O)O)NC(=O)[C@H](CCCCN)NC(=O)[C@H](C)NC(=O)[C@H](C)NC(=O)[C@H](CCC(N)=O)NC(=O)CNC(=O)[C@H](CCC(=O)O)NC(=O)[C@H](CC(C)C)NC(=O)[C@H](Cc1ccc(O)cc1)NC(=O)[C@H](CO)NC(=O)[C@H](CO)NC(=O)[C@@H](NC(=O)[C@H](CC(=O)O)NC(=O)[C@H](CO)NC(=O)[C@@H](NC(=O)[C@H](Cc1ccccc1)NC(=O)[C@@H](NC(=O)CNC(=O)[C@H](CCC(=O)O)NC(=O)NCCNC(=O)[C@@H](N)Cc1c[nH]cn1)[C@@H](C)O)[C@@H](C)O)C(C)C)C(=O)N[C@@H](C)C(=O)N[C@@H](Cc1c[nH]c2ccccc12)C(=O)N[C@@H](CC(C)C)C(=O)N[C@H](C(=O)N[C@@H](CCCCN)C(=O)NCC(=O)N[C@@H](CCCNC(=N)N)C(=O)NCC(N)=O)C(C)C` [compound 7]: the half-life at 5 µM in series [1] was 13.2 min. Besides, on mouse GLP-1 receptor [2], the “loss in potency relative to 3 (fold)” value was found to be 5 fold; the “Potency (%), Table S1” value came to 13%; the 50% effective concentration (EC50) was 0.8 nM. Also, at GLP-1R, the EC50 amounted to 0.0053 nM and the “Potency (%), percentage of potency” value is on record as 59%.
